Assays:
[1] = test system: cell membranes; conditions: studies in fixed cells; cited from earlier work
[2] = test system: HeLa cells; assay: Uptake of endocytic markers after inhibitor treatment; format: cell-based, human
[3] = test system: HeLa cells; assay: Cellular uptake by live cell confocal fluorescence microscopy; format: cell-based, human
[4] = test system: HeLa cells; assay: Actin filament visualization with rhodamine-phalloidin in fixed cells; format: cell-based, human; conditions: 2 μM for 30 min at 37°C, rhodamine-phalloidin and DAPI

kalata B1
Affinity for proteins or lipids in cell membranes [1]: shows membrane affinity

CCN(c1nc(N)c(C(=O)NC(=N)N)nc1Cl)C(C)C [EIPA, 5-(N-ethyl-N-isopropyl)amiloride]
Effect on uptake of 10K-Dex ([2]; 50 μM EIPA): significantly inhibited | Effect on uptake of CTX-B ([2]; 50 μM EIPA): significantly inhibit | Effect on uptake of EGF ([2]; 50 μM EIPA, data not shown): no or little effect

AF488-MCoTI-I: MCoTI-I site-specifically labeled with AlexaFluor488 through the ε-amino of residue Lys4 in loop 1 (SGSDGGVCPKILQRCRRDSDCPGACICRGNGYCG; not fully specified; AlexaFluor488 on Lys4; UniProt P82408 1-34, looked up)
Surface binding at 4°C ([3]; 25 μM, 4°C, live HeLa cells): no significant surface binding | Internalization at 4°C ([3]; 25 μM, 1 h incubation at 4°C, completely reversible on 1 h at 37°C): totally inhibited | Internalization (intracellular distribution) ([3]; 25 μM, 1 h incubation at 37°C, serum-free DMEM, live HeLa cells, confocal fluorescence): clearly visible within perinuclear punctate spots inside the cells | Inhibition of cellular uptake by EIPA ([3]; 50 μM EIPA for 30 min at 37°C before 25 μM cyclotide, 1 h uptake): ≈ 80%

C/C1=C/C(=O)O[C@@H]2C[C@@H](CC[C@H](C)/C=C\CC1)O[C@@](O)([C@@H]1CSC(=O)N1)C2 [Lat B, Latrunculin B]
Effect on uptake of 10K-Dex ([2]; 2 μM Lat B, data not shown): did not significantly inhibit | Effect on actin filament network [4]: total disruption of the actin filament network

Source: article PMC3195939 (Journal of controlled release : official journal of the …, 2011)
